Measurements as given in BindingDB's records for PubMed 40236523 (Emory University).
Structures can show the parent of a compound that is named as a salt. Where a SMILES comes first, the peptide text is derived from it. Bridges are numbered along the chain shown (N, C = ends). [ ]: non-standard residue; d: D form. The star is where a group is joined. Trp(7-Me) = Cc1cccc2c(C[C@H](N)C(=O)O)c[nH]c12; Lys(Me3) = C[N+](C)(C)CCCC[C@H](N)C(=O)O; 2Nal = N[C@@H](Cc1ccc2ccccc2c1)C(=O)O; AEF = NCCOc1ccc(C[C@H](N)C(=O)O)cc1; 3Pal = N[C@@H](Cc1cccnc1)C(=O)O; Lys(Me) = CNCCCC[C@H](N)C(=O)O; Pen = CC(C)(S)[C@H](N)C(=O)O; Thp = NC1(C(=O)O)CCOCC1; Me2NCH2CH2 = CN(C)CC*; Tfa = O=C(C(F)(F)F)*; Sar = CNCC(=O)O

target: Signal transducer and activator of transcription 3 (Homo sapiens, UniProt P40763); assay: Inhibition of STAT3 phosphorylation in human PBMC cells preincubated for 30 mins followed by addition of IL-23 and measured after 10 mins
Sequence (P40763 whole entry): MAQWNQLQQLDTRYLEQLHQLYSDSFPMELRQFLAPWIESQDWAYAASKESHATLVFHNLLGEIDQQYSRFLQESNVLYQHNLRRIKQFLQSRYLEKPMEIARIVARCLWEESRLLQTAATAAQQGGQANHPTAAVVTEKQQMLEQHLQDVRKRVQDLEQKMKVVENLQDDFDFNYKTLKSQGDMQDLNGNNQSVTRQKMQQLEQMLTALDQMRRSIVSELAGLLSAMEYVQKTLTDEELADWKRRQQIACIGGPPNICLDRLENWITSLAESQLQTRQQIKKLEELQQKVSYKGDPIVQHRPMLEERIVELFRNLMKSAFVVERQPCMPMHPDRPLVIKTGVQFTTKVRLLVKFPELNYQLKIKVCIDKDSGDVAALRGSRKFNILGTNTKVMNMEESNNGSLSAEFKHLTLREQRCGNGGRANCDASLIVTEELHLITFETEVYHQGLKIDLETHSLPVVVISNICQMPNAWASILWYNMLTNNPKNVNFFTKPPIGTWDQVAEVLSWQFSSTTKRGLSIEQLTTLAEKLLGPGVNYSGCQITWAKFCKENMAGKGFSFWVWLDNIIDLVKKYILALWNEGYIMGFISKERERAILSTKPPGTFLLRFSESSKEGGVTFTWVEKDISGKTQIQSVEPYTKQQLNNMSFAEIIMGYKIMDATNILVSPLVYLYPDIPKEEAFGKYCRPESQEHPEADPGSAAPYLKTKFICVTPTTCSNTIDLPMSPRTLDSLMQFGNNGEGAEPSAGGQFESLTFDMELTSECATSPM

Going from Cc1cccc2c(C[C@@H]3NC(=O)[C@H]([C@@H](C)O)NC(=O)[C@H](CC(N)=O)NC(=O)[C@@H](NC(=O)C(F)(F)F)C(C)(C)SSC(C)(C)[C@@H](C(=O)N[C@@H](Cc4ccc(OCCN)cc4)C(=O)N[C@@H](Cc4ccc5ccccc5c4)C(=O)NC4(C(=O)N[C@@H](CCC(=O)N(C)C)C(=O)N[C@@H](CC(N)=O)C(=O)N[C@@H](Cc5cccnc5)C(=O)N(C)CC(N)=O)CCOCC4)NC(=O)[C@H](CCC(=O)N(C)C)NC3=O)c[nH]c12 (Tfa-[Pen]NT[Trp(7-Me)]E(NMe2)[Pen][AEF][2Nal][Thp]E(NMe2)N[3Pal][Sar]-NH2; disulfide 1-6) to CC(=O)N(C)CCCC[C@@H]1NC(=O)[C@H](Cc2c[nH]c3c(C)cccc23)NC(=O)[C@H]([C@@H](C)O)NC(=O)[C@H](CC(=O)N(C)C)NC(=O)[C@@H](NC(=O)C(F)(F)F)C(C)(C)SSC(C)(C)[C@@H](C(=O)N[C@@H](Cc2ccc(OCCN(C)C)cc2)C(=O)N[C@@H](Cc2ccc3ccccc3c2)C(=O)NC2(C(=O)N[C@@H](CCC(=O)O)C(=O)N[C@@H](CC(N)=O)C(=O)N[C@@H](Cc3cccnc3)C(=O)N(C)CC(=O)N(C)C)CCOCC2)NC1=O (Tfa-[Pen]D(NMe2)T[Trp(7-Me)][Lys(Me)](Ac)[Pen]Y(Me2NCH2CH2)[2Nal][Thp]EN[3Pal][Sar]-NMe2; disulfide 1-6), the IC50 falls from 8 pM to 3 pM (2.7-fold). The second is the more potent here.

CC(=O)N[C@@H](CCCC[N+](C)(C)C)C(=O)N[C@@H]1C(=O)N[C@@H](CC(=O)N(C)C)C(=O)N[C@@H]([C@@H](C)O)C(=O)N[C@@H](Cc2c[nH]c3c(C)cccc23)C(=O)N[C@@H](CCCCN(C)C(C)=O)C(=O)N[C@H](C(=O)N[C@@H](Cc2ccc(OCCN(C)C)cc2)C(=O)N[C@@H](Cc2ccc3ccccc3c2)C(=O)NC2(C(=O)N[C@@H](CCC(=O)O)C(=O)N[C@@H](CC(N)=O)C(=O)N[C@@H](Cc3cccnc3)C(=O)N(C)CC(=O)N(C)C)CCOCC2)C(C)(C)SSC1(C)C (Ac-[Lys(Me3)][Pen]D(NMe2)T[Trp(7-Me)][Lys(Me)](Ac)[Pen]Y(Me2NCH2CH2)[2Nal][Thp]EN[3Pal][Sar]-NMe2; disulfide 2-7) and CC(=O)NCCCC[C@@H]1NC(=O)[C@H](Cc2c[nH]c3c(C)cccc23)NC(=O)[C@H]([C@@H](C)O)NC(=O)[C@H](CC(N)=O)NC(=O)[C@@H](NC(C)=O)C(C)(C)SSC(C)(C)[C@@H](C(=O)N[C@@H](Cc2ccc(OCCCCC[N+](C)(C)C)cc2)C(=O)N[C@@H](Cc2ccc3ccccc3c2)C(=O)NC2(C(=O)N[C@@H](CCCCNC(C)=O)C(=O)N[C@@H](CC(N)=O)C(=O)N[C@@H](Cc3cccnc3)C(=O)N(C)CC(N)=O)CCOCC2)NC1=O are the same in IC50: 8 pM for the first, 8 pM for the second.

For CC(=O)NCCCC[C@@H]1NC(=O)[C@H](Cc2c[nH]c3c(C)cccc23)NC(=O)[C@H]([C@@H](C)O)NC(=O)[C@H](CC(N)=O)NC(=O)[C@@H](NC(=O)CCOCCOCC[N+](C)(C)C)C(C)(C)SSC(C)(C)[C@@H](C(=O)N[C@@H](Cc2ccc(OCCN)cc2)C(=O)N[C@@H](Cc2ccc3ccccc3c2)C(=O)NC2(C(=O)N[C@@H](CCC(=O)O)C(=O)N[C@@H](CC(N)=O)C(=O)N[C@@H](Cc3cccnc3)C(=O)N(C)CC(N)=O)CCOCC2)NC1=O, the IC50 was 6 pM.
